In ChEMBL document CHEMBL1201862, “PubChem BioAssay data set” (2004):
Active and inactive are the calls of the source.

How the values were obtained:
[1] = molecular target: T1, Serine/threonine-protein phosphatase (Candida dubliniensis (strain CD36 / CBS 7987 / NCPF 3949 / NRRLY-17841) (Yeast), UniProt B9W6M3); assay: calcineurin pathway inhibitors in yeast reporter, dose response, S. cerevisiae, CDRE-lacZ, luminescence, secondary (AID 2388); format: functional, cell-based;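 also: yeast reporter cells carrying a calcineurin-responsive lacZ construct stimulated with calcium chloride; luminescent beta-galactosidase reporter signal in whole cells rather than isolated phosphatase activity; potency for inhibition where a drop in reporter signal means calcineurin blockade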
T1 sequence (B9W6M3 whole entry): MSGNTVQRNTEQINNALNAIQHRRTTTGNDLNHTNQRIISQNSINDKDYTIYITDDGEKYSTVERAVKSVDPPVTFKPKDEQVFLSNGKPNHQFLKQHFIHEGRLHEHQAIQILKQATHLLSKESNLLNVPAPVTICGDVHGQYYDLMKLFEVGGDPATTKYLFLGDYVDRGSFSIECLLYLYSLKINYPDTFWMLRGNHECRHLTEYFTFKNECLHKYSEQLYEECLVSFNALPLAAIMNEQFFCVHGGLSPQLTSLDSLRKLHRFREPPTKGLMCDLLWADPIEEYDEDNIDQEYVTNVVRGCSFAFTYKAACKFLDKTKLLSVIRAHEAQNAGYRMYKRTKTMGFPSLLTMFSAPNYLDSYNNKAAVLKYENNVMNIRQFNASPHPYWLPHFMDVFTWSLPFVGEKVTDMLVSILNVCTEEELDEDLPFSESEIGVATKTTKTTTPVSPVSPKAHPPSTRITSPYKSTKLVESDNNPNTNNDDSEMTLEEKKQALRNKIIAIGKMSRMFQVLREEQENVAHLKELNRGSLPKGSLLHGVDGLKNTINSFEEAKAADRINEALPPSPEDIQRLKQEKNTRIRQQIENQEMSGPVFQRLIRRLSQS

Nonstructural protein 1 = Nonstructural protein 1 (Influenza A virus, UniProt Q194T2); format: functional, Influenza A virus (A/California/07/2009(H1N1))
[2] = NIH-3T3 fibroblast cytotoxicity, dose response, cytotoxicity control, cell-based, fluorescence, Alamar Blue, secondary assay (AID 2327); format: functional;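 also: NIH-3T3 mouse fibroblasts cultured with fluconazole at 8 µg/mL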
INS1 = assay: beta cell apoptosis inhibitors, cytokine rescue, dose response, luminescence, retest (AID 449756); format: functional, cell-based; details: Rattus norvegicus;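 also: cell death triggered by IL-1 beta plus TNF-alpha plus IFN-gamma mixture; protective hits raise ATP signal compared with cytokine alone wells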
[3] = molecular target: FAD-linked sulfhydryl oxidase ALR (Homo sapiens, UniProt P55789); assay: inhibitors of human ALR sulfhydryl oxidase, dose response, biochemical, H2O2 detection, luminescence, cherry-pick (AID 493248)
[4] = molecular target: ATP-dependent molecular chaperone HSP82 (Candida albicans (strain WO-1) (Yeast), UniProt C4YTQ8); assay: loss of DOC-induced GRE-beta-galactosidase reporter signal, dose response, Hsp90 inhibitor project, S. cerevisiae, luminescence (AID 2400); format: functional, cell-based;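 also: beta-galactosidase luminescence from glucocorticoid response element reporter as proxy for Hsp90 function; inhibitor potency where signal loss means Hsp90 inhibition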
[5] = C. albicans growth with fluconazole, confirmation, fluorescence, retest (AID 2467); format: functional, cell-based
Cytochrome P450 2C19 = Cytochrome P450 2C19 (Homo sapiens, UniProt P33261); assay: Cytochrome panel assay with activity outcomes. Panel member name: p450-cyp2c19 Compounds with AC50 equal or less than 10 uM are considered active; format: functional; details: read-out: AC50
Cytochrome P450 3A4 = Cytochrome P450 3A4 (Homo sapiens, UniProt P08684);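 also: CYP3A4 tested as one member of a cytochrome P450 panel screen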
Cytochrome P450 2D6 = Cytochrome P450 2D6 (Homo sapiens, UniProt P10635);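 also: CYP2D6 member of a cytochrome P450 panel assay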
[6] = microbe, parasite or virus in culture; format: functional; details: Mycobacterium tuberculosis
Genome polyprotein = Genome polyprotein (dengue virus type 2, UniProt P29990); assay: Dengue-2 NS5 methyltransferase inhibitors, primary screen, biochemical, confirmation dose response (AID 588689); format: functional
Streptococcus = assay: Group A Streptococcus viability loss, dose response, counter-screen for streptokinase expression inhibitor project, luminescence, BacTiterGlo (AID 1915); format: functional, organism-based;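 also: potency for reduction of bacterial viability or growth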
[7] = inhibitors of intracellular T. cruzi replication, confirmation, NIH3T3 host cells, beta-gal luminescence (AID 2044); format: functional, cell-based;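 also: intracellular parasites grown in NIH/3T3 mouse fibroblasts as host cells; luminescent beta-galactosidase reporter signal from transgenic T. cruzi replicating inside host cells; inhibitors lower the luminescence signal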
[8] = Counterscreen for AddAB inhibitors: absorbance-based bacterial cell-based high throughput dose response assay for inhibitors of bacterial viability. [Related pubchem assays (depositor defined):AID435030, AID449728, AID449731, AID488942, AID488955, AID488956]; format: functional
Exodeoxyribonuclease V = molecular target: T2, Exodeoxyribonuclease V (Escherichia coli (strain K12), UniProt P04993+P07648+P08394); assay: E. coli RecBCD inhibitors, dose response, counter-screen for AddAB inhibitor project, absorbance, V66 E. coli, mutant T4 phage (AID 492957); format: functional, cell-based, Escherichia coli str. K-12 substr. MG1655
T2 sequence (P04993 whole entry): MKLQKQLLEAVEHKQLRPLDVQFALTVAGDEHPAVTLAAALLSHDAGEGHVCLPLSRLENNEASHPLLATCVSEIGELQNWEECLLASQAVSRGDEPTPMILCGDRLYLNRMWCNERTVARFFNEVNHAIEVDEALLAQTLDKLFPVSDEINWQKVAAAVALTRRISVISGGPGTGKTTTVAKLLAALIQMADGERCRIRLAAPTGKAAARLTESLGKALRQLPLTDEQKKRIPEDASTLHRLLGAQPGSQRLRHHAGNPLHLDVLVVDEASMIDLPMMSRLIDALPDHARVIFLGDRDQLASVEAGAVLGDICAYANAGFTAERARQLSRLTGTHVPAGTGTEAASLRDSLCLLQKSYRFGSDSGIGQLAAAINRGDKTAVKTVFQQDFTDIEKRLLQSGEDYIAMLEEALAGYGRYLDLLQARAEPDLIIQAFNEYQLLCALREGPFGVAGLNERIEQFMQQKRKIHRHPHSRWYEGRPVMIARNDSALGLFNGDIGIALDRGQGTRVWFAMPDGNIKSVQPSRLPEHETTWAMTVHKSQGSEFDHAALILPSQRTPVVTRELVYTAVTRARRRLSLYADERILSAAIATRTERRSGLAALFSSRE
T2 sequence (P07648 whole entry): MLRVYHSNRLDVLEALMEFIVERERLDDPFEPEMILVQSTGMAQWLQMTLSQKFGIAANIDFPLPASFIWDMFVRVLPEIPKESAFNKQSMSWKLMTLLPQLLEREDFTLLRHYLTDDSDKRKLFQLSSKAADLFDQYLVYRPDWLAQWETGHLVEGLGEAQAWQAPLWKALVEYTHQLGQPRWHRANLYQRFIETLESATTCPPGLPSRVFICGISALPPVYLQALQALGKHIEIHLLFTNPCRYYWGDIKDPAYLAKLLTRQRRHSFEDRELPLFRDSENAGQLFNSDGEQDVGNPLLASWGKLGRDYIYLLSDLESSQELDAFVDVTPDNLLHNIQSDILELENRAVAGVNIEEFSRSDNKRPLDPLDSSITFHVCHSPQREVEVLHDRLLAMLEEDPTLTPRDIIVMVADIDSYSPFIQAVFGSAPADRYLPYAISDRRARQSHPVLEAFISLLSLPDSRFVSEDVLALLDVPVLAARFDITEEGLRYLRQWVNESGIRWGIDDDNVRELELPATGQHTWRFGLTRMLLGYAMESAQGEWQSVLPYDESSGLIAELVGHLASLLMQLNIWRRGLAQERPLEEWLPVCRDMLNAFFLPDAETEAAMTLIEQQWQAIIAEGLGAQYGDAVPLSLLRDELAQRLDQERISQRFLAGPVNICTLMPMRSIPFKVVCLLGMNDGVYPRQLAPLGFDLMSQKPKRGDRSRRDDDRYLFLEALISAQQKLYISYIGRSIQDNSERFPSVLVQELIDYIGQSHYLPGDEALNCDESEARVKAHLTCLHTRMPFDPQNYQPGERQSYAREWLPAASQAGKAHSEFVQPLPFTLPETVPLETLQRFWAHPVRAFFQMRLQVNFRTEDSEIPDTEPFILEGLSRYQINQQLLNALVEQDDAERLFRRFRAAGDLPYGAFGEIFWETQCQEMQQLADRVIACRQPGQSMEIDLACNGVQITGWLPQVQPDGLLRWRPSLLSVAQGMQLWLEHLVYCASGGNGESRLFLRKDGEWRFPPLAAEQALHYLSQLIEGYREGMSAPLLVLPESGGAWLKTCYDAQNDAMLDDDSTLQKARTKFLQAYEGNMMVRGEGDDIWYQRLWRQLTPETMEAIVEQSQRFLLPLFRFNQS
T2 sequence (P08394 whole entry): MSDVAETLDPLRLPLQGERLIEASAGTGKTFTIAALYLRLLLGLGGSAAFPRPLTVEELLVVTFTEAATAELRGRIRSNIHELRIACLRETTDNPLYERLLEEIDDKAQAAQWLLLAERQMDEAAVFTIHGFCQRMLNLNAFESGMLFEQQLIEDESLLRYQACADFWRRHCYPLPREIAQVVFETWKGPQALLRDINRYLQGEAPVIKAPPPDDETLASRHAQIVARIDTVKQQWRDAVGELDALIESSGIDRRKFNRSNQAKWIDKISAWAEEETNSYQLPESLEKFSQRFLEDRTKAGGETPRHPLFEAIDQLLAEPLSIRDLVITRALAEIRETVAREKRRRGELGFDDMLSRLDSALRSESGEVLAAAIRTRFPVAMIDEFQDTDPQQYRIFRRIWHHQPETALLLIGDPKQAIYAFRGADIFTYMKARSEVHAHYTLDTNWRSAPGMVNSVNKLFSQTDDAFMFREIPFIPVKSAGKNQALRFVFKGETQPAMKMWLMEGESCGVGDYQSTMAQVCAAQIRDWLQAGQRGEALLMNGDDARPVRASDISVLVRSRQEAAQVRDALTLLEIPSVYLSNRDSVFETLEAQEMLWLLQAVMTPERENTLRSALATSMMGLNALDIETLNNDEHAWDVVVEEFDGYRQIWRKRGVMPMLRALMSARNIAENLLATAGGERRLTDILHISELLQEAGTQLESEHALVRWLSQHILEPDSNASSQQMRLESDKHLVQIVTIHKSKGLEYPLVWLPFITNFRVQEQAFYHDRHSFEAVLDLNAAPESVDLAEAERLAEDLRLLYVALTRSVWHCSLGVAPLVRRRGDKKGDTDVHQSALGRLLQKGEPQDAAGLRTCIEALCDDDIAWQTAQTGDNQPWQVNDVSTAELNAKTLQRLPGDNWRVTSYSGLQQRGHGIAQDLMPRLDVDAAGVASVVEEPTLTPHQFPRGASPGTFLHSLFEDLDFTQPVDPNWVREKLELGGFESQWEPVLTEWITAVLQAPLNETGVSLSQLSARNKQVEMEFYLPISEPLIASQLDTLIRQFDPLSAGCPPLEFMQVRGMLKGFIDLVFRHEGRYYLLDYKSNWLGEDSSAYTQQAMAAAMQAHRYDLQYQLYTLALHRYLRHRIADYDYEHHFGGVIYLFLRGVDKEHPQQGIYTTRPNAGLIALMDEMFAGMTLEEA

[9] = HepG2 cell cytotoxicity, dose response, cytotoxicity control for Shn3 inhibitor project, CellTiter-Glo, cherry-picked (AID 624134); format: functional, cell-based
[10] = cytotoxicity toward NIH3T3 fibroblasts, dose response, counter-screen, cell-based, ATP luminescence, mouse fibroblasts (AID 2010); format: functional;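 also: cells exposed to compound for about 90 hours before reading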
cells [11] = format: functional, cell-based
[12] = Shn3 3'UTR reporter inhibitors, dose response, cell-based, Clone20 osteoblasts, firefly luciferase, cherry-picked (AID 624132); format: functional;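 also: firefly luciferase luminescence from reporter carrying the Shn3 3'UTR in osteoblasts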
[13] = control 3'UTR Renilla luciferase suppression, dose response, counter-screen for Shn3 inhibitor project, cell-based, Clone20-Shn3RL, cherry-picked (AID 624133); format: functional
cells [14] = format: functional, cell-based; remark: listed apart in the source
Vero = assay: cells; format: functional; details: Chlorocebus sabaeus
[15] = tested on: Streptococcus sp. 'group A'; assay: growth inhibition of control SK(-) GAS strain, dose response, counter-screen for streptokinase expression inhibitor project, luminescence, kanamycin, BacTiterGlo, confirmation (AID 1900); format: functional, organism-based

Cytochrome P450 3A4, sequence (P08684 whole entry): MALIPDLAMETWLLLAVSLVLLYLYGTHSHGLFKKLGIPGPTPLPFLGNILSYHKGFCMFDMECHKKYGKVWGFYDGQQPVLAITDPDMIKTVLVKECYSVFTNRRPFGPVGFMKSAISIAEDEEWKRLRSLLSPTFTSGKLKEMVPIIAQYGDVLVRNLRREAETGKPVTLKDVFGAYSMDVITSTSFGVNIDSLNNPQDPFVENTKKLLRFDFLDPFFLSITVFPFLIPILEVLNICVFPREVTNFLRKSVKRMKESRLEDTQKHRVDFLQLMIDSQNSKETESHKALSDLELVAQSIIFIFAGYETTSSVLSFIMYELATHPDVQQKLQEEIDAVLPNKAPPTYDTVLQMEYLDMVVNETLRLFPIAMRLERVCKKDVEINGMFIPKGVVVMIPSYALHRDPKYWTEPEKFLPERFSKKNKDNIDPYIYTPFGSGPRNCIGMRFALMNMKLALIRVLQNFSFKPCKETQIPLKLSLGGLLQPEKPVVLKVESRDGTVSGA
ATP-dependent molecular chaperone HSP82, sequence (C4YTQ8 whole entry): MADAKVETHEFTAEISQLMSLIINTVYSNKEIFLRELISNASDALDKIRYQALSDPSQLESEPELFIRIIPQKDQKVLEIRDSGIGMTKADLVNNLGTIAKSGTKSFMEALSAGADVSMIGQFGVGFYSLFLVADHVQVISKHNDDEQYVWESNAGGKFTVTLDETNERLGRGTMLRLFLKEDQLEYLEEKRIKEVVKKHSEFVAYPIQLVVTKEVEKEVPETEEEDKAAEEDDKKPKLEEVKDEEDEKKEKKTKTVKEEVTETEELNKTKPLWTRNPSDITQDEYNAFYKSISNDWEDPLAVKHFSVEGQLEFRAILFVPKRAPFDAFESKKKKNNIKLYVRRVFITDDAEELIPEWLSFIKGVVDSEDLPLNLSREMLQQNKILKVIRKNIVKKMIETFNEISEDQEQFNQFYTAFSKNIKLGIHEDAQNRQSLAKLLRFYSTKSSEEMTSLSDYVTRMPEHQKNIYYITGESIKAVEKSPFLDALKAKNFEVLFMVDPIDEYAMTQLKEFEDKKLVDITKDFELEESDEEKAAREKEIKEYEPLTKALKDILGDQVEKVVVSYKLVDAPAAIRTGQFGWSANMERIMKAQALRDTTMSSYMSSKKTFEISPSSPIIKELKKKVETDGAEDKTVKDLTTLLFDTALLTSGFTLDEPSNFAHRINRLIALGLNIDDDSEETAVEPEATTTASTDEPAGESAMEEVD
Cytochrome P450 2D6, sequence (P10635 whole entry): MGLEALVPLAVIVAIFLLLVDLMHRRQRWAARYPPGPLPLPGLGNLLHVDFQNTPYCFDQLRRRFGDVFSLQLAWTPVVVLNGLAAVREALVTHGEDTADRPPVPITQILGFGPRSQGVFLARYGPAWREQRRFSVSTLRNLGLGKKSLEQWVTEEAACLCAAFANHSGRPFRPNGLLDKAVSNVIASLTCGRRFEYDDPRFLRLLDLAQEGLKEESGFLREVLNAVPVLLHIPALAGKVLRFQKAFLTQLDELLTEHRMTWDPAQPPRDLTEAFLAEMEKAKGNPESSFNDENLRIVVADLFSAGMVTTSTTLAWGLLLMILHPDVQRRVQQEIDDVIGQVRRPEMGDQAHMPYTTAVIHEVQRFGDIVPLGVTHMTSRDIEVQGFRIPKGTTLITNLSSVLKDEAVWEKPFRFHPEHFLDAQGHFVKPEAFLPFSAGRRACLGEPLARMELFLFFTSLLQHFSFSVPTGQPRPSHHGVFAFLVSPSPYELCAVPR
Genome polyprotein, sequence (P29990 2492-3391 limits assumed): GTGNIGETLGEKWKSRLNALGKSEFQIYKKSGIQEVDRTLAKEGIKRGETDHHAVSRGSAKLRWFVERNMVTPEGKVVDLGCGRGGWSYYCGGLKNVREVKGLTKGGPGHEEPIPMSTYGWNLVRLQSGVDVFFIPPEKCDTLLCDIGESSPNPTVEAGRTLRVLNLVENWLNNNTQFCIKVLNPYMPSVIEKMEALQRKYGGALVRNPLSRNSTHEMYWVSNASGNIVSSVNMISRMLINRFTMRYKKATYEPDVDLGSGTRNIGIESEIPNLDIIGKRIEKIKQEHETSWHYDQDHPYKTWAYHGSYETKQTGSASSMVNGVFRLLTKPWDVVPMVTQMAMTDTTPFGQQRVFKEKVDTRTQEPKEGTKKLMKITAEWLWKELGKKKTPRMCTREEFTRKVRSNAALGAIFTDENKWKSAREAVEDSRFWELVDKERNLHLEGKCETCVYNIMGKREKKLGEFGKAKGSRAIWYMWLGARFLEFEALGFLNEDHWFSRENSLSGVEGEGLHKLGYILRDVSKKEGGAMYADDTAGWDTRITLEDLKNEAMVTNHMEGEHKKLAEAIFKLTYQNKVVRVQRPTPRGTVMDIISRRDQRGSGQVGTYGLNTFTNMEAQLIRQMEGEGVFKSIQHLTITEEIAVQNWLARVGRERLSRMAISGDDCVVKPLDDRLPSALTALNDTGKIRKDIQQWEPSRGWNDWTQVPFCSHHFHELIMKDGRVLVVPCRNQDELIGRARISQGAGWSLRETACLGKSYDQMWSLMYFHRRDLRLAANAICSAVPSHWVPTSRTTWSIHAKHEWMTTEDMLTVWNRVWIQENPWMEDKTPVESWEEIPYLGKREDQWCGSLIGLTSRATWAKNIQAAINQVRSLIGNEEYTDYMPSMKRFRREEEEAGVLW
FAD-linked sulfhydryl oxidase ALR, sequence (P55789 whole entry): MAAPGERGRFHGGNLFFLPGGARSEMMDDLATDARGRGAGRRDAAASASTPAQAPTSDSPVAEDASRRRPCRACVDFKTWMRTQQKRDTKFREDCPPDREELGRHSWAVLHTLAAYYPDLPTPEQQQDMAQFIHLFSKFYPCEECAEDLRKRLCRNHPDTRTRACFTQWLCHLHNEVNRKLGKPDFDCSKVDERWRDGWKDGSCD
Nonstructural protein 1, sequence (Q194T2 whole entry): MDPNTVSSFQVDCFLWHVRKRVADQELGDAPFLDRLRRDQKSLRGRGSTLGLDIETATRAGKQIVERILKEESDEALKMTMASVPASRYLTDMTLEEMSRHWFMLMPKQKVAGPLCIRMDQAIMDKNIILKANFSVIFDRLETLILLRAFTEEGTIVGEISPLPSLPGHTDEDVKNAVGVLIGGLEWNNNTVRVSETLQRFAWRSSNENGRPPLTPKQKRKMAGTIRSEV
Cytochrome P450 2C19, sequence (P33261 whole entry): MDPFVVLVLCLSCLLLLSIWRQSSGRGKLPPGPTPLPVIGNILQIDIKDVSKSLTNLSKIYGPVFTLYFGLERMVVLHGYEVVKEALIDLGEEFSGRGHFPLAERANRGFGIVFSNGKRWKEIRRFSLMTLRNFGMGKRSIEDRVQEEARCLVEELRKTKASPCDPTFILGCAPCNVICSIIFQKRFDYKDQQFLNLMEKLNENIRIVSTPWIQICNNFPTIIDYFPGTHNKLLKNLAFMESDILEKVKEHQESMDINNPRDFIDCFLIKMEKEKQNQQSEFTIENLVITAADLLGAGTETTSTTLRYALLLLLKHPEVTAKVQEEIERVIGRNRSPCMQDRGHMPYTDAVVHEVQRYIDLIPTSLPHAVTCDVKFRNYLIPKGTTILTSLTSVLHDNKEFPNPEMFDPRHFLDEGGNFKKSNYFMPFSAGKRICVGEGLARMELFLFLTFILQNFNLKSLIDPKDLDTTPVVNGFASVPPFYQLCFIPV

Q: With `Oc1ccc(N=Nc2nccs2)c(O)c1` as the compound, how does the EC50 [1] read?
A: > 180 µM (inactive)

Q: And the IC50 (Nonstructural protein 1)?
A: 11.4 µM (active)

Q: What about the EC50 [2] of the same compound?
A: 16 µM (inconclusive)

Q: What about the AC50 (INS1) of the same compound?
A: 2.78 µM (active)

Q: What about the AC50 [3] of the same compound?
A: 4.55 µM (active)

Q: And the EC50 [4]?
A: 21.8 µM (active)

Q: And the EC50 [5]?
A: 1.19 µM (active)

Q: With `O=C(Nc1cccc(F)c1)N1CCC2(CC1)CCN(C(=O)c1ccco1)CC2` as the compound, how does the AC50 (Cytochrome P450 2C19) read?
A: 10 µM (inconclusive)

Q: What about the AC50 (Cytochrome P450 3A4) of the same compound?
A: inconclusive

Q: What does the source list for `O=C(c1cc(C(F)(F)F)cc(C(F)(F)F)c1)N1CCC2(CCN(Cc3nccs3)CC2)CC1`?
A: AC50 (Cytochrome P450 2D6): 10 µM (inconclusive); AC50 (Cytochrome P450 3A4): inconclusive

Q: With `Cn1c(=O)c(-c2ccc(F)cc2)nc2cnc(Oc3ccccc3)nc21` as the compound, how does the AC50 (Cytochrome P450 3A4) read?
A: inconclusive

Q: Which EC50 [1] does the source give for `O=[N+]([O-])c1nn(-c2ccc(Cl)cc2)[n+]([O-])c1NCc1cccnc1` here?
A: > 180 µM (inactive)

Q: What about the EC50 [2] of the same compound?
A: > 160 µM (inactive)

Q: And the EC50 [4]?
A: > 150 µM (inactive)

Q: And the EC50 [5]?
A: 1.11 µM (active)

Q: And the CC50 [6]?
A: > 40 µM (active)

Q: For `C=CCOc1ccc(/C=C2/C(=O)ON=C2C)cc1OCC`, which IC50 (Genome polyprotein) is on record?
A: > 100 µM (active)

Q: For `CCCC(=O)NC(c1ccc(Cl)cc1Cl)c1ccc2cccnc2c1O` (stereo unspecified), which EC50 (Streptococcus) is on record?
A: 7.38 µM (active)

Q: What about the EC50 [7] of the same compound?
A: 0.102 µM (active)

Q: And the IC50 [8]?
A: > 119 µM (inactive)

Q: What about the IC50 (Exodeoxyribonuclease V) of the same compound?
A: > 119 µM (inactive)

Q: And the AC50 [9]?
A: > 70 µM (inactive)

Q: And the EC50 [10]?
A: 0.543 µM (active)

Q: What about the AC50 (INS1) of the same compound?
A: 0.491 µM (active)

Q: What about the EC50 (cells [11]) of the same compound?
A: 7.39 µM (active)

Q: What about the AC50 [12] of the same compound?
A: 0.638 µM (active)

Q: And the AC50 [13]?
A: 3.61 µM (active)

Q: And the EC50 (cells [14])?
A: > 350 µM (not active)

Q: What about the CC50 (Vero) of the same compound?
A: 1.15 µM (active)

Q: And the EC50 [15]?
A: 1.01 µM (active)
